Experimental data: patent US12258574B2, “Methods and compositions for transducing lymphocytes and regulating the activity thereof” (Exuma Biotech Corp., priority 2016, dated 2025)
Structures can show the parent of a compound that is named as a salt.

Legend:
[1] = system: CHO-Target 1 cells; test: pH shift cytotoxicity assay / HCl switch RTCA killing assay (xCELLigence); assay type: cell-based
Protocol: The cytotoxic activity of transduced T cells before and after pH change by addition of NaHCO3 or NaOH was measured using the xCELLigence System. Briefly, one day before the experiment, target cells (CHO cells stably transfected with a construct to express Target 1 on the cell surface (CHO-Target 1 cells)), were seeded into a 96-well E-plate (ACEA; San Diego, CA) at 10,000 cells/well with X-VIVO 15 media containing 40 mM HEPES and 40 mM PIPES, pH 6.7. Cryopreserved effector cells previously transduced with either lentiviral particles containing the nucleic acid encoding T1B or C1 (T1BVP and C1VP, respectively) produced as discussed above, were thawed and cultured for two days in X-VIVO 15 media containing 100 IU/mL of IL-2 (R&D Systems, Minneapolis, MN). On the day of the experiment, cells transduced with T1BVP or C1VP were washed and resuspended in X-VIVO 15 media containing 40 mM HEPES and 40 mM PIPES, pH 6.7 and then added into the experimental wells at effector cell/target cell ratios (E/T) of 1:1.
Impedance readings measured on the xCELLigence System (ACEA) were taken every 5 minutes and reported as the Cell Index (CI) to quantitate cell confluency as a measure of cell proliferation/cell lysis. Approximately 3 hours after effector cell addition, 8 μl of 7.5% NaHCO3 or 14 μl of 0.5 M NaOH was added into the wells with X-VIVO 15 media containing 40 mM HEPES and 40 mM PIPES, pH 6.7 to increase the pH from 6.7 to 7.4. Impedance readings were continued for approximately 20 hours after effector cell addition. Percentage of specific cytolysis was calculated as follows ((CI Target+C1VP transduced effector T cells)−(CI Target+T1BVP transduced effector T cells))/(CI Target+C1VP transduced effector T cells)×100.
The cytotoxic activity of transduced T cells before and after pH change by addition of HCl was measured using the xCELLigence System. Briefly, one day before the experiment, CHO-Target 1 cells were seeded into a 96 well E-plate at 10,000 cells/well with X-VIVO 15 media containing 40 mM HEPES and 40 mM PIPES, pH 7.4. Cryopreserved effector cells previously transduced with either C1VP or T1BVP, were thawed and cultured for two days in X-VIVO 15 media containing 100 IU/mL of IL-2. On the day of the experiment, cells transduced with T1BVP or C1VP were washed and resuspended in X-VIVO 15 media containing 40 mM HEPES and 40 mM PIPES, pH 7.4 and then added into experimental wells at effector cell/target cell ratios (E/T) of 1:1.
Impedance readings were taken every 5 minutes and reported as the Cell Index (CI). […] Impedance readings were continued for approximately 20 hours after effector cell addition. Percentage of specific cytolysis was calculated as follows ((CI Target+C1VP transduced effector T cells)−(CI Target+T1BVP transduced effector T cells))/(CI Target C1VP)×100.

[2] = system: deoxyguanosine switch; test: Tests of natural deoxyguanosine riboswitch with nucleoside analogues; assay type: binding
Excerpt: This example provides a method to screen libraries based on natural structural riboswitches that bind guanosine and deoxyguanosine. These riboswitches were used as scaffolds to develop biased libraries for the selection of aptamers that bind specifically to a ligand nucleoside analogue. Previously, isothermal titration calorimetry has been used to show these natural riboswitches bind to their native ligands. […] The single-stranded regions of the riboswitch were targeted for mutation and variant sequences that specifically respond to acyclovir or penciclovir were selected for.

[3] = Deep sequencing and sequence family analysis of parallel assessment populations, acyclovir candidates; assay type: binding; details: for Enrichment rate: ratio between final positive and penultimate positive population; for presence in the negative population: sequenced final generation library responding to 1X selection buffer; for presence in the counter-targets population: sequenced final generation library responding to counter-targets
Excerpt: The Illumina MiSeq system (San Diego, CA) was implemented to sequence the aptamer libraries after parallel assessment using a single-end read technique. Deep sequencing and subsequent data analysis reduces the large number of screening rounds traditional SELEX requires, which may introduce error and bias due to the screening process (Schütze et al., 2011). Five samples were sequenced: the final generation library that responded to acyclovir, the final generation library that responded to the counter-targets, the final generation library that responded to 1× selection buffer (negative condition), the penultimate generation library that responded to acyclovir, and the final generation library that responded to the additional target of interest, penciclovir. From these sets of data, sequence families were constructed at 95% homology (sequence similarity considering mutations, deletions, and insertion) for aptamer candidate identification. There were 1,711,535 raw sequences (124,600 unique sequences) from the library that responded to acyclovir and 2,074,832 raw sequences (110,149 unique sequences) from the library that responded to penciclovir.
Sequence family construction focused primarily on sequence similarity. This means that a sequence's frequency in the positive target population was factored in, but greater emphasis was placed on the degree of variation between similar sequences, with 95% homology being the minimum requirement (100% match over the entire sequence is not necessary to join a family, up to 2 bases can be mismatched, inserted, or deleted). One would therefore expect families with the greatest number of members to rank highly as aptamer candidates. […] Under these conditions, several candidate families appeared to be strong candidates for binding acyclovir (Table 2) and penciclovir.

[4] = Qualitative PAGE assessment of selected aptamers after graphene oxide selection; assay type: binding; details: 0.5 mM MgCl2, 37° C., 0.5 μM aptamer, 1 μM target or counter-targets
Protocol: Qualitative PAGE assessment of selected aptamers was performed. Individually synthesized and transcribed aptamers were subjected to selection on Graphene Oxide (GrO) under physiological Mg++ (0.5 mM) and elution with either acyclovir (+) or counter-targets (×). The specifically eluted aptamer fractions for each sample were subjected to PAGE for analysis.
Final library concentration was 0.5 μM, target/counter-targets concentration was 1 μM (incubation volume was 200 μl).
After target/counter-target incubation, 250 μg of GrO (Angstrom Materials (Dayton, OH) was added to adsorb unbound candidate (10-minute incubation at 37° C.).
Samples were centrifuged for 5 minutes at 7,000×g. […] Running buffer was 1×TBE (supplier: Amresco/VWR; catalog #0658-20L, diluted using DI water). DNA ladder was 20/100 DNA ladder (IDT). Gels stained with Gel Star (Lonza, 50535) and imaged on a blue light transilluminator.

[5] = Thermal denaturation by differential scanning calorimetry (DSC)
Protocol: At least 10 nmole of each candidate was lyophilized, and resuspended in 1× Binding Buffer (50 mM HEPES, 100 mM KCl, 0.5 mM MgCl2, pH 7.3) on the day of binding assessment.
All analyses were conducted in 1× Binding Buffer and all water used was DEPC-treated. All analytes were resuspended first in DEPC-treated water then diluted to their final listed concentration in 1× Binding Buffer. Prior to loading of the DSC (GE Healthcare MicroCal VP-DSC), the samples were degassed at 25° C. for 10 minutes.

## Cl [HCl]
[1]; 8 μl of 1 M HCl about 3 hours after effector cells, E/T 1:1
  effect on cytotoxic activity of MRB-CAR T cells of switching media pH from 7.4 to 6.7: increased

## [Na+].[OH-] [NaOH]
[1]; added about 3 hours after effector cells, E/T 1:1
  effect on cytotoxic activity of MRB-CAR T cells of raising media pH from 6.7 to 7.4: inhibited the cytotoxic activity

## Nc1nc2c(ncn2COCCO)c(=O)[nH]1 [acyclovir]
[2]
  interaction with deoxyguanosine switch: interacted weakly

## Nc1nc2c(ncn2CCC(CO)CO)c(=O)[nH]1 [penciclovir]
[2]
  interaction with deoxyguanosine switch: interacted weakly

## F1A-582: acyclovir aptamer candidate, most prevalent sequence of family 582; SEQ ID NO:108 (ACAGCTTAGCGTAATGGCTACTGACGCCGTCCAAACCTATTTACAGACT; RNA riboswitch aptamer, listed DNA covers non-stem region only, further chemistry not given here) [Candidate F1A-582]
[3]
  Enrichment rate: greatest enrichment rate
  presence in the negative population: did not perform well
  presence in the counter-targets population: did not perform well

## F1A-769: acyclovir aptamer candidate, most prevalent sequence of family 769; SEQ ID NO:147 (ACAGGTCAGCATAATGTGCTAGTGCGCCTTCAAACCTATTTAGAGACT; RNA riboswitch aptamer, listed DNA covers non-stem region only, further chemistry not given here) [Candidate F1A-769]
[3]
  Enrichment rate: performing adequately
  presence in the negative population: minimally detected
[4]
  response in qualitative PAGE assessment (elution from GrO with acyclovir vs counter-targets): selective positive response

## F1A-795: acyclovir aptamer candidate, most prevalent sequence of family 795; SEQ ID NO:164 (ACAGCGAAGCATAATGGCTACTGACGCCCTCAAACCCTATTTGCAGACT; RNA riboswitch aptamer, listed DNA covers non-stem region only, further chemistry not given here) [Candidate F1A-795]
[3]
  presence in the negative population: performing less well
  presence in the counter-targets population: not detected
[4]
  response in qualitative PAGE assessment (elution from GrO with acyclovir vs counter-targets): selective positive response
[5]; absence of acyclovir, 7.2 μM F1A-795, 1X Binding Buffer
  thermal denaturation transition: about 60 °C
[5]; concluded from stabilizing effect in DSC
  binding of acyclovir to the aptamer domain: bound by acyclovir

## F1A-935: acyclovir aptamer candidate, most prevalent sequence of family 935; SEQ ID NO:183 (ACAGGGTAGCATAATGGGCTACTTGACGCCTTCACCTATTTGTAGACT; RNA riboswitch aptamer, listed DNA covers non-stem region only, further chemistry not given here) [Candidate F1A-935]
[3]
  Enrichment rate: performing adequately
  presence in the negative population: not found
  presence in the counter-targets population: not detected

## F1A-946: acyclovir aptamer candidate, most prevalent sequence of family 946; SEQ ID NO:198 (ACAGCGTAGCATAATGGGCTGCAGACGCCGTCAAACCTATTTGCAGACT; RNA riboswitch aptamer, listed DNA covers non-stem region only, further chemistry not given here) [Candidate F1A-946]
[3]
  Enrichment rate: performing adequately
  presence in the negative population: not found
  presence in the counter-targets population: not detected
[4]
  response in qualitative PAGE assessment (elution from GrO with acyclovir vs counter-targets): selective positive response

## F1A-961: acyclovir aptamer candidate; SEQ ID NO:220 (ACACCGTAGCATAATGGGCTACTGCCGCCGTCGACCTTTTGGAGACT; RNA riboswitch aptamer, listed DNA covers non-stem region only, further chemistry not given here) [Candidate F1A-961]
[3]
  presence in the negative population: performing less well
  presence in the counter-targets population: show up to a small degree

## F1A-996: acyclovir aptamer candidate; SEQ ID NO:221 (ACAGGGTAGCATAATGGCTTAGGACGCCTTCAAACCTATCAAGACT; RNA riboswitch aptamer, listed DNA covers non-stem region only, further chemistry not given here) [Candidate F1A-996]
[3]
  presence in the negative population: performing less well
  presence in the counter-targets population: show up to a small degree
[4]
  response in qualitative PAGE assessment (elution from GrO with acyclovir vs counter-targets): selective positive response

B1: T1B: an anti-Target 1 MRB-CAR from the series of candidate MRB-CARs in Example 3 (protein)
chain: EVQLVQSGAEVKKPGATVKISCKVSGYSFWGATMNWIRQPPGKGLEWIGLIKPSNGGTSYNQKFKGRVTISADKSISTAYLQWSSLKASDTAMYYCAHGHYESYEAMDYWGQGTLVTVSSGGGGSGGGGSGGGGSDIQMTQSPSSLSASVGDRVTITCKASQDVVSAVAWYQQKPGQAPRLLIYWQDTRHTGVPSRFSGSGSGTEFTLTISSLQPDDFATYYCQEHFSPPLTFGQGTKVEIKFWVLVVVGGVLACYSLLVTVAFIIFWVRSKRSRLLHSDYMNMTPRRPGPTRKHYQAYAAARDFAAYRSRVKFSRSADAPAYQQGQNQLYNELNLGRREEYDVLDKRRGRDPEMGGKPRRKNPQEGLYNELQKDKMAEAYSEIGMKGERRRGKGHDGLYQGLSTATKDTYDALHMQALPPR
[1]; pH 7.4, E/T 1:1
  cytotoxic activity on CHO-Target 1 cells: low
